According to the supplement of paper PMC10307832:

How the values were obtained:
Test in all cases: relative viability (nuclei count vs DMSO), 5 days (fraction); higher = more cells survive
[1] = compound: CCn1c(-c2nonc2N)nc2cnc(Oc3cccc(NC(=O)c4ccc(OCCN5CCOCC5)cc4)c3)cc21 + COc1cc2c(Oc3ccc(NC(=O)C4(C(=O)Nc5ccc(F)cc5)CC4)cc3F)ccnc2cc1OCCCN1CCOCC1 [Foretinib] (partner 0.25 µM)
Summary of the method: (§1)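 Values are medians from duplicate plates. Each reflects relative viability, defined as the nuclei count of treated wells over that of vehicle wells. Lung cancer cell lines in 1536-well plates were pin-tool dosed one day after seeding with one drug alone or with a fixed anchor-drug dose plus five library-drug doses (not always all listed) in √10 steps, then fixed, stained and imaged at 4× after 5 days.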

[2] = compound: CCC1=CN=CN=C1N2CCN(CC2)CC3=NC4=C(N3)C=C(C=C4)C(F)(F)F + COc1cc2c(Oc3ccc(NC(=O)C4(C(=O)Nc5ccc(F)cc5)CC4)cc3F)ccnc2cc1OCCCN1CCOCC1 [Foretinib] (partner 0.25 µM)
Summary of the method: as §1

Mirin + Luminespib = compound: N=C1NC(=O)/C(=C/c2ccc(O)cc2)S1 [Mirin] + CCNC(=O)c1noc(-c2cc(C(C)C)c(O)cc2O)c1-c1ccc(CN2CCOCC2)cc1 [Luminespib] (partner 0.01 µM)
Summary of the method: as §1

Mirin + Bortezomib = compound: N=C1NC(=O)/C(=C/c2ccc(O)cc2)S1 [Mirin] + CC(C)C[C@H](NC(=O)[C@H](Cc1ccccc1)NC(=O)c1cnccn1)B(O)O [Bortezomib] (partner 0.002 µM)
Summary of the method: as §1

NCI-H2170
relative viability ([1]; first compound 0.04 µM): 1 | relative viability ([1]; first compound 0.1265 µM): 0.99 | relative viability ([1]; first compound 0.4 µM): 0.997 | relative viability ([1]; first compound 1.265 µM): 0.939 | relative viability ([1]; first compound 4 µM): 0.848 | relative viability ([2]; first compound 0.04 µM): 1.01 | relative viability ([2]; first compound 0.1265 µM): 0.975 | relative viability ([2]; first compound 0.4 µM): 0.94 | relative viability ([2]; first compound 1.265 µM): 0.867 | relative viability ([2]; first compound 4 µM): 1 | relative viability (Mirin + Luminespib; first compound 0.25 µM): 0.828 | relative viability (Mirin + Luminespib; first compound 0.7906 µM): 0.656 | relative viability (Mirin + Luminespib; first compound 2.5 µM): 0.934 | relative viability (Mirin + Luminespib; first compound 7.906 µM): 0.693 | relative viability (Mirin + Luminespib; first compound 25 µM): 0.663

NCI-H522
relative viability (Mirin + Luminespib; first compound 0.25 µM): 0.884 | relative viability (Mirin + Luminespib; first compound 0.7906 µM): 1.11 | relative viability (Mirin + Luminespib; first compound 2.5 µM): 1.23 | relative viability (Mirin + Luminespib; first compound 7.906 µM): 0.875 | relative viability (Mirin + Luminespib; first compound 25 µM): 0.801

LCLC-97TM1
relative viability ([1]; first compound 0.04 µM): 1.03 | relative viability ([1]; first compound 0.1265 µM): 1.04 | relative viability ([1]; first compound 0.4 µM): 0.813 | relative viability ([1]; first compound 1.265 µM): 0.902 | relative viability ([1]; first compound 4 µM): 0.937 | relative viability (Mirin + Bortezomib; first compound 0.25 µM): 0.589 | relative viability (Mirin + Bortezomib; first compound 2.5 µM): 0.582 | relative viability (Mirin + Bortezomib; first compound 7.906 µM): 0.278 | relative viability (Mirin + Bortezomib; first compound 25 µM): 0.868 | relative viability ([2]; first compound 0.04 µM): 0.897 | relative viability ([2]; first compound 0.1265 µM): 0.898 | relative viability ([2]; first compound 0.4 µM): 0.895 | relative viability ([2]; first compound 1.265 µM): 0.838 | relative viability ([2]; first compound 4 µM): 0.888 | relative viability (Mirin + Luminespib; first compound 0.25 µM): 0.672 | relative viability (Mirin + Luminespib; first compound 0.7906 µM): 0.646 | relative viability (Mirin + Luminespib; first compound 2.5 µM): 0.679 | relative viability (Mirin + Luminespib; first compound 7.906 µM): 0.63 | relative viability (Mirin + Luminespib; first compound 25 µM): 0.495

NCI-H1299
relative viability ([1]; first compound 0.04 µM): 1.03 | relative viability ([1]; first compound 0.1265 µM): 1.06 | relative viability ([1]; first compound 0.4 µM): 0.969 | relative viability ([1]; first compound 1.265 µM): 0.858 | relative viability ([1]; first compound 4 µM): 0.789 | relative viability (Mirin + Bortezomib; first compound 0.25 µM): 1.02 | relative viability (Mirin + Bortezomib; first compound 0.7906 µM): 1.12 | relative viability (Mirin + Bortezomib; first compound 2.5 µM): 1.01 | relative viability (Mirin + Bortezomib; first compound 7.906 µM): 1.05 | relative viability (Mirin + Bortezomib; first compound 25 µM): 1.17 | relative viability ([2]; first compound 0.04 µM): 1.1 | relative viability ([2]; first compound 0.1265 µM): 1.02 | relative viability ([2]; first compound 0.4 µM): 1.12 | relative viability ([2]; first compound 1.265 µM): 1.11 | relative viability ([2]; first compound 4 µM): 1.08

NCI-H322M
relative viability ([1]; first compound 0.04 µM): 1.51 | relative viability ([1]; first compound 0.1265 µM): 1.24 | relative viability ([1]; first compound 0.4 µM): 1.22 | relative viability ([1]; first compound 1.265 µM): 0.71 | relative viability ([1]; first compound 4 µM): 0.8 | relative viability (Mirin + Bortezomib; first compound 0.25 µM): 1.22 | relative viability (Mirin + Bortezomib; first compound 0.7906 µM): 1.29 | relative viability (Mirin + Bortezomib; first compound 2.5 µM): 1.41 | relative viability (Mirin + Bortezomib; first compound 7.906 µM): 1.42 | relative viability (Mirin + Bortezomib; first compound 25 µM): 1.24 | relative viability ([2]; first compound 0.04 µM): 1.08 | relative viability ([2]; first compound 0.1265 µM): 0.907 | relative viability ([2]; first compound 0.4 µM): 0.939 | relative viability ([2]; first compound 1.265 µM): 0.953 | relative viability ([2]; first compound 4 µM): 0.925 | relative viability (Mirin + Luminespib; first compound 0.25 µM): 0.924 | relative viability (Mirin + Luminespib; first compound 0.7906 µM): 0.745 | relative viability (Mirin + Luminespib; first compound 2.5 µM): 0.913 | relative viability (Mirin + Luminespib; first compound 7.906 µM): 1.05 | relative viability (Mirin + Luminespib; first compound 25 µM): 0.583

NCI-H1395
relative viability ([1]; first compound 0.04 µM): 1.03 | relative viability ([1]; first compound 0.1265 µM): 0.95 | relative viability ([1]; first compound 0.4 µM): 0.975 | relative viability ([1]; first compound 1.265 µM): 0.501 | relative viability ([1]; first compound 4 µM): 0.561 | relative viability ([2]; first compound 0.04 µM): 0.847 | relative viability ([2]; first compound 0.1265 µM): 0.881 | relative viability ([2]; first compound 0.4 µM): 1.01 | relative viability ([2]; first compound 1.265 µM): 0.986 | relative viability ([2]; first compound 4 µM): 0.94 | relative viability (Mirin + Luminespib; first compound 0.25 µM): 0.687 | relative viability (Mirin + Luminespib; first compound 0.7906 µM): 0.449 | relative viability (Mirin + Luminespib; first compound 2.5 µM): 0.662 | relative viability (Mirin + Luminespib; first compound 7.906 µM): 0.649 | relative viability (Mirin + Luminespib; first compound 25 µM): 0.622

NCI-H2009
relative viability ([1]; first compound 0.04 µM): 1.07 | relative viability ([1]; first compound 0.1265 µM): 0.974 | relative viability ([1]; first compound 0.4 µM): 0.921 | relative viability ([1]; first compound 1.265 µM): 0.642 | relative viability ([1]; first compound 4 µM): 0.356 | relative viability (Mirin + Bortezomib; first compound 0.25 µM): 1 | relative viability (Mirin + Bortezomib; first compound 0.7906 µM): 0.831 | relative viability (Mirin + Bortezomib; first compound 2.5 µM): 1.12 | relative viability (Mirin + Bortezomib; first compound 7.906 µM): 0.869 | relative viability (Mirin + Bortezomib; first compound 25 µM): 1.14 | relative viability ([2]; first compound 0.04 µM): 1.23 | relative viability ([2]; first compound 0.1265 µM): 1.25 | relative viability ([2]; first compound 0.4 µM): 1.16 | relative viability ([2]; first compound 1.265 µM): 1.24 | relative viability ([2]; first compound 4 µM): 1.21 | relative viability (Mirin + Luminespib; first compound 0.25 µM): 0.983 | relative viability (Mirin + Luminespib; first compound 0.7906 µM): 1.15 | relative viability (Mirin + Luminespib; first compound 2.5 µM): 1.02 | relative viability (Mirin + Luminespib; first compound 7.906 µM): 0.925 | relative viability (Mirin + Luminespib; first compound 25 µM): 1.07

NCI-H1944
relative viability ([1]; first compound 0.04 µM): 0.772 | relative viability ([1]; first compound 0.1265 µM): 0.869 | relative viability ([1]; first compound 0.4 µM): 0.978 | relative viability ([1]; first compound 1.265 µM): 0.861 | relative viability ([1]; first compound 4 µM): 0.658 | relative viability ([2]; first compound 0.04 µM): 1.1 | relative viability ([2]; first compound 0.1265 µM): 0.844 | relative viability ([2]; first compound 0.4 µM): 0.809 | relative viability ([2]; first compound 1.265 µM): 0.648 | relative viability ([2]; first compound 4 µM): 0.694 | relative viability (Mirin + Luminespib; first compound 0.25 µM): 0.679 | relative viability (Mirin + Luminespib; first compound 0.7906 µM): 0.751 | relative viability (Mirin + Luminespib; first compound 2.5 µM): 0.694 | relative viability (Mirin + Luminespib; first compound 7.906 µM): 0.543 | relative viability (Mirin + Luminespib; first compound 25 µM): 0.359

Calu-6
relative viability ([1]; first compound 0.04 µM): 1.03 | relative viability ([1]; first compound 0.1265 µM): 0.832 | relative viability ([1]; first compound 0.4 µM): 0.84 | relative viability ([1]; first compound 1.265 µM): 0.568 | relative viability ([1]; first compound 4 µM): 0.507 | relative viability (Mirin + Bortezomib; first compound 0.25 µM): 0.925 | relative viability (Mirin + Bortezomib; first compound 0.7906 µM): 1.08 | relative viability (Mirin + Bortezomib; first compound 2.5 µM): 1.04 | relative viability (Mirin + Bortezomib; first compound 7.906 µM): 0.895 | relative viability (Mirin + Bortezomib; first compound 25 µM): 0.841 | relative viability ([2]; first compound 0.04 µM): 0.91 | relative viability ([2]; first compound 0.1265 µM): 0.841 | relative viability ([2]; first compound 0.4 µM): 0.889 | relative viability ([2]; first compound 1.265 µM): 0.807 | relative viability ([2]; first compound 4 µM): 0.782

NCI-H1703
relative viability ([1]; first compound 0.04 µM): 0.312 | relative viability ([1]; first compound 0.1265 µM): 0.326 | relative viability ([1]; first compound 0.4 µM): 0.332 | relative viability ([1]; first compound 1.265 µM): 0.337 | relative viability ([1]; first compound 4 µM): 0.264 | relative viability (Mirin + Bortezomib; first compound 0.25 µM): 0.449 | relative viability (Mirin + Bortezomib; first compound 0.7906 µM): 0.483 | relative viability (Mirin + Bortezomib; first compound 2.5 µM): 0.347 | relative viability (Mirin + Bortezomib; first compound 25 µM): 0.227 | relative viability ([2]; first compound 0.04 µM): 0.344 | relative viability ([2]; first compound 0.1265 µM): 0.366 | relative viability ([2]; first compound 0.4 µM): 0.369 | relative viability ([2]; first compound 1.265 µM): 0.381 | relative viability ([2]; first compound 4 µM): 0.372
